Data as given in patent US5288624A, “Cercosporal fungicide compositions and methods of use” (priority 1987, dated 1994).
Converted amounts (≈) assume the structure as drawn.

What was measured:
Botrytis = experiment: Combination with herbicides, Botrytis agar plate test; assay type: cell-based, Botrytis cinerea; conditions: herbicide applied singly
Bacillus subtilis = conditions: Matsueda et al.; cited from earlier work
certain microorganisms = conditions: Matsueda et al. 1980; cited from earlier work
Pseudomonas aeruginosa = conditions: Matsueda et al.; cited from earlier work
E. coli = conditions: Matsueda et al.; cited from earlier work
Staphylococcus aureus = conditions: Matsueda et al.; cited from earlier work
Candida japonica = conditions: Matsueda et al.; cited from earlier work
Trichophyton rubrum = experiment: Effect of the fungicide on dermatophytes (agar incorporation); assay type: cell-based; conditions: 120 h, pH 7.1, 25°, 5 days, read-out: Minimum Inhibitory Concentration, MIC
Protocol: (§1) These were recent clinical isolates and were cultivated at 25° C. on agar containing the following ingredients in grams per liter:
(§2) Mycelia from the 3 fungi were disintegrated with sterile glass beads in sterile water and 1 drop applied to the center petri dishes containing the same agar as above but to which was added Phaeoramularia fungicide. The fungicide was added at a concentration of from 0.5 μg/ml to 5 μg/ml of the eluate described under "Extraction of the active principle." Griseofulvin was used in comparison. Controls were prepared with the same agar but devoid of fungicide. Five (5) replicates were made for each test.

Microsporum canis = experiment: as above; assay type: cell-based; conditions: 120 h, pH 7.1, 25°, 5 days, read-out: Minimum Inhibitory Concentration, MIC
Protocol: as §1, §2

T. mentagrophytes = experiment: as above; assay type: cell-based; conditions: Trichophyton mentagrophytes, 120 h, pH 7.1, 25°, 5 days, read-out: Minimum Inhibitory Concentration, MIC
Protocol: as §1, §2

For `CCNc1nc(Cl)nc(NC(C)C)n1` [Atrazine], the “effect of herbicide on Botrytis” value (Botrytis) was “no effect”.

With `COc1nc(C)nc(NC(=O)NS(=O)(=O)c2ccccc2Cl)n1` [Chlorsulfuron] the “effect of herbicide on Botrytis” value (Botrytis) was “no effect”.

In the case of `CCNc1nc(Cl)nc(NCC)n1` [Simazine], the “effect of herbicide on Botrytis” value (Botrytis) is reported as “no effect”.

For `COc1c(CC(C)O)c2c3c(CC(C)O)c(OC)c(=O)c4c(O)cc5c(c6c(cc(O)c(c1=O)c62)OCO5)c43` (stereo not drawn) [cercosporin], the inhibition of growth (Bacillus subtilis) is listed as “inhibit the growth”, the “inhibitory effect on certain microorganisms” value (certain microorganisms) is listed as “inhibitory effect” and the inhibition of growth (Pseudomonas aeruginosa) is listed as “inhibit the growth”. For the same compound, the inhibition of growth (E. coli) was “inhibit the growth”, the inhibition of growth (Staphylococcus aureus) was “inhibit the growth” and the inhibition of growth (Candida japonica) was “inhibit the growth”.

`COC1=CC(=O)C[C@@H](C)[C@]12Oc1c(Cl)c(OC)cc(OC)c1C2=O` [griseofulvin] gave an MIC (Trichophyton rubrum) of 1.5 µg/mL (≈ 4.25 µM), an MIC (Microsporum canis) of 3 µg/mL (≈ 8.5 µM) and an MIC (T. mentagrophytes) of 10 µg/mL (≈ 28.3 µM).
